Test results as given in patent publication US20240246935A1 (Plexium, Inc., priority 2021, published 2024).

target: GSPT1 (Homo sapiens (Human), UniProt P15170+Q96SW2); assay: GSPT1 reporter degradation assay (HEK293 hGSPT1 HiBiT-tagged cells); assay type: cell-based; settings: 24 hour incubation
Experimental: HEK293_hGSPT1_HiBiT-tagged cells were generated using CRISPR-Cas12a technology. Briefly, ˜400,000 HEK293 cells were transiently co-transfected with precomplexed ribonuclear proteins (RNPs) consisting of 80 pmol of crRNA (IDT), 62 pmol of Cas12a protein (IDT), 3 μg of ssODN donor (IDT; AltR® modifications), 78 pmol of electroporation enhancer (IDT), and 200 ng of pMaxGFP (Lonza). The transfection was performed via nucleofection (Lonza, 4D-Nucleofector X-unit) using solution P3 and program CM-130 in a (20 μL) cuvette. Five days post-nucleofection, cells were single-cell-sorted for GFP+(transfected) cells by FACs in 96-well plates and clonally selected. Clones were screened and verified for the desired modification via targeted deep sequencing using gene-specific primers with partial Illumina adapter overhangs as previously described. In brief, clonal cell pellets were harvested, lysed, and used to generate gene-specific amplicons with partial Illumina adapters in PCR #1. Amplicons were indexed in PCR #2 and pooled with other targeted amplicons for other loci to create sequence diversity. Additionally, 10% PhiX sequencing control V3 (Illumina) was added to the pooled amplicon library prior to running the sample on a Miseq Sequencer System (Illumina) to generate paired 2×250 bp reads. Samples were demultiplexed using the index sequences, fastq files were generated, and NGS analysis was performed using CRIS.py. Final clones were authenticated using the PowerPlex fusion system (Promega) and tested negative for mycoplasma by the MycoAlert™Plus mycoplasma detection kit (Lonza).
Editing construct sequences and screening primers are outlined below (sequence from 5′ to 3′). hGSPT1Cas12acrRNA, CAGE635.GSPT1.g1: […] (SEQ ID NO: 4); CAGE635.g1.anti.ssODN: ttcctcacagtattgtgcagggtcatcaagaaaatgctta[…] CAGCCGCTCACgtcCttctctggaaccagtttcagaacttttccaattgcaatggtcttacctagaaatgaaattttaa (HiBiT tag and silent blocking modifications to prevent Cas12a recutting after integration are in upper case) (SEQ ID NO: 5); CAGE635.hGSPT1.DS.F: […] (SEQ ID NO: 6); CAGE635.hGSPT1.DS.R: GTGAA GTAGGCTTCTGCAGTC (SEQ ID NO: 7).
The GSPT1 degradation assay was carried out by harvesting the HEK 293T reporter cell lines and resuspending the cells in media formulated for reduced background fluorescence (FluoroBrite; Thermo Fisher). The respective cell lines were seeded at a density of 8,000 cells/well into white-opaque 384-well optical grade assay tissue culture plates (Greiner 781080-20). The cells were incubated overnight at 37° C. to allow for attachment to the assay plate. Dilutions of the compounds were prepared in DMSO from 10 mM compound stocks. Test compounds were added in a 10-point dilution series (typically 10 μM to […]) using a TECAN D300e Digital Dispenser with an upper limit of 0.5% final DMSO. Plates were centrifuged at 320×g for 2 minutes at room temperature, and subsequently incubated at 37° C.
After 24 hour incubation with the compounds, the plates were allowed to cool to room temperature for 10 minutes. 30 μL of HiBiT lytic buffer+1:50 HiBiT substrate Solution were added to each well. Plates were centrifuged at 320×g for 2 minutes at room temperature and then incubated with shaking at room temperature for 10 minutes covered with foil. Plates were read on a CLARIOstar microplate reader (BMG LabTech), measuring at 450 nm (donor emission) and 610 nm or 630 nm (acceptor emission). The DC50 values were determined by regression to best fit four-parameter logistic curves using GraphPad Prism.

Chain of GSPT1 (P15170 whole entry): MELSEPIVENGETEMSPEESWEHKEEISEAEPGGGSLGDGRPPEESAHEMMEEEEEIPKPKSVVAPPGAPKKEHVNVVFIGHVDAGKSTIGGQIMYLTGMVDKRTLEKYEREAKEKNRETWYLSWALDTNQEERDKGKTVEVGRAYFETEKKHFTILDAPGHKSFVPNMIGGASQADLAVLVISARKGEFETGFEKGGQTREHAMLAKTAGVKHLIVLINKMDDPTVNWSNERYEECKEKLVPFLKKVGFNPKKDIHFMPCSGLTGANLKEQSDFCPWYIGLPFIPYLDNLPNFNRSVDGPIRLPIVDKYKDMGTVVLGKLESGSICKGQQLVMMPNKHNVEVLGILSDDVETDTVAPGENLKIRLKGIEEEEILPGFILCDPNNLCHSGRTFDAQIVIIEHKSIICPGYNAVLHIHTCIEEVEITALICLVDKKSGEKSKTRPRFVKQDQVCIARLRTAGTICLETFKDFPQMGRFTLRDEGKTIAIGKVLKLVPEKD
Chain of GSPT1 (Q96SW2 whole entry): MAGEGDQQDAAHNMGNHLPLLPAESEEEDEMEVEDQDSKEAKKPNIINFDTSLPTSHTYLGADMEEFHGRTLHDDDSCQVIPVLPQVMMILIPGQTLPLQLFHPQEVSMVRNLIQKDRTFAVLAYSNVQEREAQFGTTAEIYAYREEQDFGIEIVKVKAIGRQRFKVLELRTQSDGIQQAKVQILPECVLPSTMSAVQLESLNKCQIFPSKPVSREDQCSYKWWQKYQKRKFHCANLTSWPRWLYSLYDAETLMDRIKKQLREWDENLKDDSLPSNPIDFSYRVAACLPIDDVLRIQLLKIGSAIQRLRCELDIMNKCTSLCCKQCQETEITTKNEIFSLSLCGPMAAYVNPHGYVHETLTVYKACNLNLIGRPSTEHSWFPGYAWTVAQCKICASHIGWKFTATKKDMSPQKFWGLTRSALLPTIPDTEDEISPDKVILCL
Chain of GSPT1 (Q16531 whole entry partner): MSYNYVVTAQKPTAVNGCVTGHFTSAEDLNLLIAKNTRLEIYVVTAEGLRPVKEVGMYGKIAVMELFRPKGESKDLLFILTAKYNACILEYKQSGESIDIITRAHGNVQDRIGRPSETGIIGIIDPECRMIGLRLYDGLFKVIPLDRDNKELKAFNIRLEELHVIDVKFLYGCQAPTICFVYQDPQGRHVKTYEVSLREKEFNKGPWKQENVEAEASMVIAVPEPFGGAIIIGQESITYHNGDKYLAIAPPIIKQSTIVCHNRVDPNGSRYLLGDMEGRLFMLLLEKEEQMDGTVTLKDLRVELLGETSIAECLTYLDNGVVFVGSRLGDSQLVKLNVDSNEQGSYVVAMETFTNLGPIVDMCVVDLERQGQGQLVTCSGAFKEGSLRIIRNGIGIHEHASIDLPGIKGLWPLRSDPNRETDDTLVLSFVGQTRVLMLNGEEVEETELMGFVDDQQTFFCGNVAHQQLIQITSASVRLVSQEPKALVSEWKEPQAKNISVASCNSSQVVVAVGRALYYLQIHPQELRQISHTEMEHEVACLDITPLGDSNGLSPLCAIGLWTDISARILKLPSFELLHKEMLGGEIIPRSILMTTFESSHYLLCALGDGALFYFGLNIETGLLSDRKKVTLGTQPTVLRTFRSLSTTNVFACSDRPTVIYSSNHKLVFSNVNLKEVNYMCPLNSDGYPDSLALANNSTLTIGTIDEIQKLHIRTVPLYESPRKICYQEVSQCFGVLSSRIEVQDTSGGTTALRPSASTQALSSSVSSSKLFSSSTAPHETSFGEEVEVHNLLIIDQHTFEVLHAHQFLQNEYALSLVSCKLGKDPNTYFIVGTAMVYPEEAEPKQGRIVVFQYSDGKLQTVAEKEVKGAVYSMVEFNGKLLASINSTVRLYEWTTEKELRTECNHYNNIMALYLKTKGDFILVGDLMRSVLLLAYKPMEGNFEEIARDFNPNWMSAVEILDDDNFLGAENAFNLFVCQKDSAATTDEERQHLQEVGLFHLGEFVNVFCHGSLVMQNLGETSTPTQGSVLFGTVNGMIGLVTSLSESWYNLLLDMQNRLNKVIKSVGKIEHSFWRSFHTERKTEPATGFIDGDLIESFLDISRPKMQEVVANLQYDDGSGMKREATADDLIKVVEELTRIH

DC50, > 30 µM:
N#Cc1cc(Cl)ccc1C1CN([C@@H]2CCCC[C@@H]2Oc2ccc3c(c2)CN(C2CCC(=O)NC2=O)C3=O)C1 (mixture of isomers) [Compound 100, Rac-5-chloro-2-(1-((cis)-2-((2-(2,6-dioxopiperidin-3-yl)-1-oxoisoindolin-5-yl)oxy)cyclohexyl)azetidin-3-yl)benzonitrile]
O=C1CCC(N2Cc3cc(O[C@H]4CCCC[C@@H]4N4CC(c5ccc(F)cc5)C4)ccc3C2=O)C(=O)N1 (single isomer, unassigned) [Compound 50]
O=C1CCC(N2Cc3cc(O[C@H]4CCCC[C@@H]4N4CC(c5ccccc5)C4)c(F)cc3C2=O)C(=O)N1 (single isomer, unassigned) [Compound 52]
O=C1CCC(N2Cc3c(ccc(O[C@H]4CCCC[C@@H]4N4CC(c5ccccc5)C4)c3F)C2=O)C(=O)N1 (single isomer, unassigned) [Compound 65]
O=C1CCC(N2Cc3c(ccc(O[C@H]4CCCC[C@@H]4N4CC(c5ccccc5)C4)c3F)C2=O)C(=O)N1 (single isomer, unassigned) [Compound 66]
O=C1CCC(N2Cc3cc(O[C@H]4CCCC[C@@H]4N4CC(c5cccc(OC(F)(F)F)c5)C4)ccc3C2=O)C(=O)N1 (stereo partly drawn) [Compound 35, 3-(1-oxo-5-(((1S,2S)-2-(3-(3-(trifluoromethoxy)phenyl)azetidin-1-yl)cyclohexyl)oxy)isoindolin-2-yl)piperidine-2,6-dione]
O=C1CCC(N2Cc3cc(O[C@H]4CCCC[C@@H]4N4CC(c5ccccc5OC(F)(F)F)C4)ccc3C2=O)C(=O)N1 (stereo partly drawn) [Compound 36, 3-(1-oxo-5-(((1S,2S)-2-(3-(2-(trifluoromethoxy)phenyl)azetidin-1-yl)cyclohexyl)oxy)isoindolin-2-yl)piperidine-2,6-dione]
O=C1CCC(N2Cc3cc(O[C@H]4CCCC[C@@H]4N4CC(c5cccc(F)c5F)C4)ccc3C2=O)C(=O)N1 (stereo partly drawn) [Compound 64, 3-(5-(((1S,2S)-2-(3-(2,3-difluorophenyl)azetidin-1-yl)cyclohexyl)oxy)-1-oxoisoindolin-2-yl)piperidine-2,6-dione]
O=C1CCC(N2Cc3cc(O[C@H]4CCCC[C@@H]4N4CC(c5cccc(F)c5)C4)ccc3C2=O)C(=O)N1 (stereo partly drawn) [Compound 111, 3-(5-(((1S,2S)-2-(3-(3-fluorophenyl)azetidin-1-yl)cyclohexyl)oxy)-1-oxoisoindolin-2-yl)piperidine-2,6-dione]
O=C1CCC(N2Cc3cc(O[C@H]4CCCC[C@@H]4N4CC(c5ccc(N6CCOCC6)cc5)C4)ccc3C2=O)C(=O)N1 (stereo partly drawn) [Compound 124, 3-(5-(((1S,2S)-2-(3-(4-morpholinophenyl)azetidin-1-yl)cyclohexyl)oxy)-1-oxoisoindolin-2-yl)piperidine-2,6-dione]
O=C1CC[C@@H](N2Cc3cc(O[C@H]4CCCC[C@@H]4N4CC(c5ccccc5)C4)ccc3C2=O)C(=O)N1 [Compound 125, (R)-3-(1-oxo-5-(((1S,2S)-2-(3-phenylazetidin-1-yl)cyclohexyl)oxy)isoindolin-2-yl)piperidine-2,6-dione]
O=C1CCC(N2Cc3cc(O[C@H]4CCCC[C@@H]4N4CC(c5ccccc5C(F)(F)F)C4)ccc3C2=O)C(=O)N1 (stereo partly drawn) [Compound 129, 3-(1-oxo-5-(((1S,2S)-2-(3-(2-(trifluoromethyl)phenyl)azetidin-1-yl)cyclohexyl)oxy)isoindolin-2-yl)piperidine-2,6-dione]
O=C(O)CC(O)(CC(=O)O)C(=O)O.O=C1CCC(N2Cc3cc(O[C@H]4CCCC[C@@H]4N4CC(c5ccccc5)C4)ccc3C2=O)C(=O)N1 (stereo partly drawn) [Compound 130, 3-(1-oxo-5-(((1S,2S)-2-(3-phenylazetidin-1-yl)cyclohexyl)oxy)isoindolin-2-yl)piperidine-2,6-dione 2-hydroxypropane-1,2,3-tricarboxylate]
O=C1CCC(N2Cc3cc(O[C@H]4CCCCC[C@@H]4N4CC(c5ccccc5)C4)ccc3C2=O)C(=O)N1 (stereo partly drawn) [Compound 131, 3-(1-oxo-5-(((1S,2S)-2-(3-phenylazetidin-1-yl)cycloheptyl)oxy)isoindolin-2-yl)piperidine-2,6-dione]
O=C1CCC(N2Cc3cc(O[C@H]4CCCC[C@@H]4N4CC(c5ccc(O)cc5)C4)ccc3C2=O)C(=O)N1 (stereo partly drawn) [Compound 132, 3-(5-(((1S,2S)-2-(3-(4-hydroxyphenyl)azetidin-1-yl)cyclohexyl)oxy)-1-oxoisoindolin-2-yl)piperidine-2,6-dione]
O=C1CCC(N2Cc3cc(O[C@H]4CCCC[C@@H]4N4CC(c5ccccc5O)C4)ccc3C2=O)C(=O)N1 (stereo partly drawn) [Compound 133, 3-(5-(((1S,2S)-2-(3-(2-hydroxyphenyl)azetidin-1-yl)cyclohexyl)oxy)-1-oxoisoindolin-2-1)piperidine-2,6-dione]
O=C1CCC(N2Cc3cc(O[C@H]4CCCC[C@@H]4N4CC(c5cccc(O)c5)C4)ccc3C2=O)C(=O)N1 (stereo partly drawn) [Compound 134, 3-(5-(((1S,2S)-2-(3-(3-hydroxyphenyl)azetidin-1-yl)cyclohexyl)oxy)-1-oxoisoindolin-2-yl)piperidine-2,6-dione]
